Measured values published in PMC5615061, “Discovery of a Low Toxicity O-GlcNAc Transferase (OGT) Inhibitor by Structure-based Virtual Screening of Natural Products” (Scientific Reports, 2017).
Like-named read-outs stand apart in the source and are kept apart here.

Molecular target: T1, OGT (O-GlcNAc transferase) (Homo sapiens, UniProt O15294)
T1 construct: full-length OGT, recombinant, purified; plasmid gift of D. J. Vocadlo
T1 sequence (O15294 2-1036 isoform O15294-3): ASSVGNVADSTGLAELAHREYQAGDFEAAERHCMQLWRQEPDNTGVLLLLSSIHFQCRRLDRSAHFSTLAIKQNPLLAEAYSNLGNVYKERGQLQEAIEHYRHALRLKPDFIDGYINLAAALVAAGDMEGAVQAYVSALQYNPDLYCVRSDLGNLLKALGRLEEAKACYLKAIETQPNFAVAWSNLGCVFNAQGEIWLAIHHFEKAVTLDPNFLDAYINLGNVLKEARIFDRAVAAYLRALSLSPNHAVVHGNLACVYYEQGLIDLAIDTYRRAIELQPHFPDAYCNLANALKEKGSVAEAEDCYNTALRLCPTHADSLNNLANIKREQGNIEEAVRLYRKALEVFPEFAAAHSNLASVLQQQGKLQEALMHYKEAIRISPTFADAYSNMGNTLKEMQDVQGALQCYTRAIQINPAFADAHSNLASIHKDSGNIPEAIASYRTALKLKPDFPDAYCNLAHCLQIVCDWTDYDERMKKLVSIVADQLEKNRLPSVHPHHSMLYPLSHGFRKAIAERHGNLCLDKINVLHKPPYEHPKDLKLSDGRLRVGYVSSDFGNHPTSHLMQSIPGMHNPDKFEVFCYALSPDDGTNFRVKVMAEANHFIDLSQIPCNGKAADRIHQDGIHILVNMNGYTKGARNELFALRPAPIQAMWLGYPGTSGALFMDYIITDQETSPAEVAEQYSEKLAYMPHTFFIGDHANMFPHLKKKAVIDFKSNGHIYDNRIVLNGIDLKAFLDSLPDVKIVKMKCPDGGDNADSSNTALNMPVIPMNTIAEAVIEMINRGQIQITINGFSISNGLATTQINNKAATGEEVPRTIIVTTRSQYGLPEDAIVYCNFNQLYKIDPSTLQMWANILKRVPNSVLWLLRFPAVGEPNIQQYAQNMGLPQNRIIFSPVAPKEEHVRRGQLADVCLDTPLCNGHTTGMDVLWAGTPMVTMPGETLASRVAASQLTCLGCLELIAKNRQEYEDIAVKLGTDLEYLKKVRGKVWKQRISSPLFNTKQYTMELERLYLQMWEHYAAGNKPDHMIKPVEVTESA
Test: UDP-Glo glycosyltransferase assay, luminescence
Type: biochemical

Row | IC50 (250 nM OGT, 125 μM CKII peptide, 40 μM UDP-GlcNAc, pH 7.4, time-dependent, not fully UDP-GlcNAc competitive) | IC50 | Structure (SMILES)
1 | 21.8 µM | – | O=C1C[C@@H](c2ccc(O)c(-c3c(O)cc(O)c4c3O[C@H](c3ccc(O)cc3)CC4=O)c2)Oc2cc(O)cc(O)c21 [L01]
2 | – | 3.5 µM | COc1ccccc1[C@@H](NS(=O)(=O)c1ccc2[nH]c(=O)ccc2c1)C(=O)N(Cc1ccco1)Cc1cccs1 [OSMI-1]
